The text below walks through data of US9416173B2, “Peptide and conjugate vaccines for fungal infections” (priority 2011, dated 2016).

In one test the test system is C. albicans strain 3153A. The test can be described thus: Fungal challenge and assessment of protection (disseminated candidiasis), peptide vaccines. Type of test: in vivo, BALB/c mice. The conditions noted are these: peptide-pulsed DC vaccine. As to the method: C. albicans 3153A and SC5314, C. krusei (ATCC 6258), C. glabrata (ATCC 2001) and Saccharomyces cerevisiae (ATCC 9463) were obtained from the American Type Culture Collection (ATCC; Manassas, Va.) and were grown as stationary-phase yeast cells in glucose-yeast extract-peptone broth at 37° C., washed and suspended to the appropriate cell concentration (5×10^6/ml) in Dulbecco's PBS (DPBS; Sigma-Aldrich, St. Louis, Mo.), and used to infect mice intravenously (i.v.) as previously described (25, 29). C. albicans strain 3153A was also used for serum antibody absorption, immunofluorescence staining and flow cytometric analysis. Unless otherwise indicated, C. albicans strain 3153A was used to challenge the mice in the examples below.
(§1) Two weeks after the second boost, immune and control mice were infected intravenously (i.v.) with a lethal dose of live C. albicans yeast cells (5×10^5 in 0.1 ml of DPBS) prepared as described above and as before (53). Passively immunized mice (below) also received the same challenge dose. Protection was evaluated by monitoring animal survival for 80-100 days. The mice were monitored 2-3 times daily for the development of a moribund state, defined as being listless, disinterested in food or water, and nonreactive to finger probing. At the time that a mouse was deemed moribund, it was sacrificed and their kidneys (for some experiments, brains) were homogenized in DPBS and plated onto a nutrient agar to determine colony forming units (CFUs). After 80-100 days, the experiments were terminated and all the survivors at that time were sacrificed and their kidneys were assessed for CFU as before. The lowest limit of detection for the CFU assay was 50 CFU per kidney pair.
Two weeks after the second boost, immune and control mice were infected i.v. with a lethal dose of live C. albicans yeast cells (5×10^5 in 0.1 ml of DPBS). Passively immunized mice also received the same challenge dose. Protection was evaluated by monitoring animal survival for up to 120 days and by quantifying the number of CFU (mean±SE) per kidney pairs. Median survival times (MST) were statistically evaluated by Kaplan-Meier (GraphPad Prism, version 4). In all analyses, there were five mice per group (n=5), and a two-tailed t test was used.

For another test, the system named is MAb E2-9. Put plainly: Inhibition ELISA (MAb E2-9 on Fba-MAP coated wells, Fba peptide as inhibitor). Type of test: binding. The conditions noted are these: soluble Fba peptide inhibiting MAb E2-9 reactivity with solid phase Fba-MAP. The protocol:
The specificity of MAb E2-9 for Fba peptide was determined by an inhibition ELISA as described previously (52, 53). Briefly, Fba-MAP was dissolved in DPBS (5 μg/ml), and the solution was used to coat 96-well ELISA plates (100 μl, overnight at 4° C.). The wells were washed five times with PBST (PBS containing Tween 20, 0.05% [vol/vol] and blocked with 1% bovine serum albumin-PBST. MAb E2-9 produced as described above, was serially diluted up to 10,000 for ELISA measurements. Unless otherwise stated, the serum was diluted 1:100 dilution in DPBS to determine the content of antibody by ELISA. MAb E2-9 was mixed with Fba peptide (inhibitor) (dissolved in PBST at a concentration between 0.1 μM and 1 mM), and the resulting solution of each concentration was added to the Fba-MAP coated microtiter wells (solid phase) in triplicate and incubated at 21 to 23° C. for 2 h. Unless otherwise stated, the concentration of test antigens used to coat the wells was about 5-10 μg/ml. […] Color was allowed to develop for 10 min, stopped by addition of […] of 2 M H2SO4, and read at 492 nm (microtiter plate reader, model 450; Bio-Rad, Richmond, Calif.). The percent inhibition was calculated relative to wells containing antibody without inhibitor.

A further test relates to C. albicans. The test can be described thus: Immunofluorescence and flow cytometric analysis of binding to fungal cell surface. Type of test: cell-based. Conditions: live fungal cells reacted with immune serum of peptide-immunized mice.
Test [1] relates to Fba peptide. The test can be described thus: ELISA antibody responses against the Fba peptide in C57BL/6 mice. The class given is in vivo. Conditions: DC-based immunization; 14 days after second booster.
Method: Sera were ELISA analyzed for antibody titers. For DC-based immunization, control groups consisted of mice given DCs alone at the time of priming and first booster followed by CFA alone at the time of the second booster, or DPBS alone for all three injections. For Fba peptides administered with alum or MPL, control groups were mice given adjuvant alone or DPBS buffer. […] Synthetic Fba-MAP (GenScript) was dissolved at 5 μg/ml in PBS (pH 7.4) and used to coat 96-well ELISA plates for testing duplicate serial 2-fold dilutions of samples of each immune serum and control sera. Color development for each well was achieved by use of secondary antibody (goat anti-mouse polyvalent Ig-HRP) and substrate (O-phenylenediamine and H2O2) and OD determined at 492 nm.
By the same DC-based immunization approach used for the BALB/c mice as described above, C57BL/6 mice was tested with the Fba peptide was given alone or as a glycoconjugate compared to the control groups of mice injected with DPBS buffer, or DCs+CFA.
Fourteen days after the second booster, immune sera were tested by ELISA for antibody responses against the Fba peptide.
Test [2] has as its system C. albicans strain SC5314. The test can be described thus: Fungal challenge and assessment of protection, strain SC5314. Type of test: in vivo, BALB/c mice. The conditions noted are these: Fba peptide by dendritic cell approach. The protocol: as §1
To test if vaccination with the Fba peptide pulsed DCs protects mice challenged with a different C. albicans strain, we challenged immunized mice with C. albicans strain SC5314 (ATCC), which is the most commonly used clinical isolate of C. albicans for research purposes. As a positive control, a second group of mice immunized at the same time were challenged with C. albicans strain 3153A.

The test system of test [3] is Fba peptide. Put plainly: Rabbit antisera against the Fba peptide (titers). The class given is in vivo. Conditions: Fba conjugated to KLH; each of two rabbits; commercial source (Genscript); data not shown. An excerpt: To obtain enough antisera for passive transfer experiments, and to determine whether the Fba peptide is immunologically restricted in other animal species, we obtained rabbit antisera against the peptide from a commercial source (Genscript). Fba was conjugated to keyhole limpet hemocyanin (KLH) prior to the rabbit immunizations.

Test [4] has as its system Fba peptide. More on the design: species or system BALB/c mice. Conditions: mouse, in vivo.

Consider YGKDVKDLFDYAQE [Fba], for which the “protection against disseminated candidiasis (survival)” value with C. albicans strain 3153A (vs DPBS or DCs+CFA controls) is “a high degree of protection”. In the test on C. albicans strain 3153A (vs controls, detection limit 50 CFU per kidney pair), the “viable fungal units (CFUs) in kidneys” value is recorded as “low or even non-detectable”. Besides, in the test with MAb E2-9, the “concentration of inhibitor (Fba peptide) required to achieve 50% inhibitory concentration” value is reported as “about 10 μg/ml”. Moreover, the “binding of antibody in the immune serum to the peptides expressed on C. albicans cell surface (flow cytometric analysis)” value in the test with C. albicans is “expressed on the fungal surface and are accessible to antibodies in immune sera”. The “antibody responses against the Fba peptide (ELISA, Fba-MAP coated plates)” value with Fba peptide [1] was “strong antibody responses”. In addition, in test [2] (vs DCs+CFA or DPBS (P<0.01)), the survival time result is “significant prolonged survival time”. Also, in test [2] (vs controls (P<0.01)), the CFUs in kidneys result is “greatly reduced or non-detectable CFUs”. Further, in the test on Fba peptide [3], the “Titers of anti-Fba peptide immune sera” value is 512,000. In addition, in the test with Fba peptide [4], the “anti-Fba IgM and IgG antibodies in sera” value was “very low levels of anti-Fba IgM and IgG antibodies”.
